The source made the active and inactive calls. The rule behind the calls is not given here.
How the values were obtained:
MCF7 = experiment: Antiproliferative activity against human MCF7 cells assessed as inhibition of cell proliferation incubated for 48 hrs by MTT assay; assay type: functional, cell-based; conditions: MCF7, 48 h
BGC-823 [1] = experiment: Antiproliferative activity against human BGC-823 cells assessed as inhibition of cell proliferation incubated for 48 hrs by MTT assay; assay type: functional, cell-based; conditions: BGC-823, 48 h
HepG2 = experiment: Antiproliferative activity against human HepG2 cells assessed as inhibition of cell proliferation incubated for 48 hrs by MTT assay; assay type: functional, cell-based; conditions: HepG2, 48 h
[2] = Cytotoxicity against human MCF-10A cells assessed as inhibition of cell proliferation incubated for 48 hrs by MTT assay; assay type: toxicity, cell-based
[3] = Cytotoxicity against human GES1 cells assessed as inhibition of cell proliferation incubated for 48 hrs by MTT assay; assay type: toxicity, cell-based
[4] = Cytotoxicity against human L02 cells assessed as inhibition of cell proliferation incubated for 48 hrs by MTT assay; assay type: toxicity, cell-based
MGC-803 = experiment: Antiproliferative activity against human MGC-803 cells assessed as inhibition of cell proliferation incubated for 48 hrs by MTT assay; assay type: functional, cell-based; conditions: MGC-803, 48 h
SGC-7901 = experiment: Antiproliferative activity against human SGC-7901 cells assessed as inhibition of cell proliferation incubated for 48 hrs by MTT assay; assay type: functional, cell-based; conditions: SGC-7901, 48 h
NCI-N87 = experiment: Antiproliferative activity against human NCI-N87 cells assessed as inhibition of cell proliferation incubated for 48 hrs by MTT assay; assay type: functional, cell-based; conditions: NCI-N87, 48 h
BGC-823 [5] = experiment: Antiproliferative activity against human BGC-823 cells assessed as inhibition of cell proliferation preincubated with H2O2 for 2 hrs followed by compound addition and measured after 48 hrs by MTT assay; assay type: functional, cell-based
[6] = Selectivity index, ratio of IC50 for cytotoxicity against human GES1 cells to IC50 for antiproliferative activity against human BGC-823 cells in presence of H2O2; assay type: toxicity, cell-based; conditions: GES1 cells and BGC-823 cells, read-out: Ratio IC50
BGC-823 [7] = experiment: Induction of ROS generation in human BGC-823 cells assessed as cells with green fluorescence at 6 uM incubated for 24 hrs by DCFH-DA staining based analysis relative to control; assay type: functional
Cell membrane [8] = experiment: Induction of mitochondrial membrane potential loss in human BGC-823 cells assessed as increase in number of cells with J-monomers by measuring green fluorescence at 6 uM incubated for 24 hrs by JC-1 staining based flow cytometric analysis (reference value: 0.33%); assay type: cell membranes
Cell membrane [9] = experiment: Induction of mitochondrial membrane potential loss in human BGC-823 cells assessed as decrease in number of cells with J-aggregates by measuring red fluorescence at 6 uM incubated for 24 hrs by JC-1 staining based flow cytometric analysis (reference value: 99.7 %); assay type: cell membranes; design: scale not given: the % may be the effect or the level left
BGC-823 [10] = experiment: Induction of apoptosis in human BGC-823 cells assessed as viable cells at 1.5 uM incubated for 48 hrs by Annexin V-FITC/PI staining based flow cytometric analysis ( Rvb = 90.09 %); assay type: functional; conditions: read-out: Activity
BGC-823 [11] = experiment: Induction of apoptosis in human BGC-823 cells assessed as early apoptotic cells at 1.5 uM incubated for 48 hrs by Annexin V-FITC/PI staining based flow cytometric analysis ( Rvb = 1.68 %); assay type: functional
BGC-823 [12] = experiment: Induction of apoptosis in human BGC-823 cells assessed as late apoptotic cells at 1.5 uM incubated for 48 hrs by Annexin V-FITC/PI staining based flow cytometric analysis ( Rvb = 5.61 %); assay type: functional
BGC-823 [13] = experiment: Induction of apoptosis in human BGC-823 cells assessed as necrotic cells at 1.5 uM incubated for 48 hrs by Annexin V-FITC/PI staining based flow cytometric analysis ( Rvb = 1.79 %); assay type: functional
BGC-823 [14] = experiment: Induction of apoptosis in human BGC-823 cells assessed as viable cells at 3 uM incubated for 48 hrs by Annexin V-FITC/PI staining based flow cytometric analysis ( Rvb = 90.09 %); assay type: functional; conditions: read-out: Activity
BGC-823 [15] = experiment: Induction of apoptosis in human BGC-823 cells assessed as early apoptotic cells at 3 uM incubated for 48 hrs by Annexin V-FITC/PI staining based flow cytometric analysis ( Rvb = 1.68 %); assay type: functional
BGC-823 [16] = experiment: Induction of apoptosis in human BGC-823 cells assessed as late apoptotic cells at 3 uM incubated for 48 hrs by Annexin V-FITC/PI staining based flow cytometric analysis ( Rvb = 5.61 %); assay type: functional
BGC-823 [17] = experiment: Induction of apoptosis in human BGC-823 cells assessed as necrotic cells at 3 uM incubated for 48 hrs by Annexin V-FITC/PI staining based flow cytometric analysis ( Rvb = 1.79 %); assay type: functional
BGC-823 [18] = experiment: Induction of apoptosis in human BGC-823 cells assessed as viable cells at 6 uM incubated for 48 hrs by Annexin V-FITC/PI staining based flow cytometric analysis ( Rvb = 90.09 %); assay type: functional; conditions: read-out: Activity
BGC-823 [19] = experiment: Induction of apoptosis in human BGC-823 cells assessed as early apoptotic cells at 6 uM incubated for 48 hrs by Annexin V-FITC/PI staining based flow cytometric analysis ( Rvb = 1.68 %); assay type: functional
BGC-823 [20] = experiment: Induction of apoptosis in human BGC-823 cells assessed as late apoptotic cells at 6 uM incubated for 48 hrs by Annexin V-FITC/PI staining based flow cytometric analysis ( Rvb = 5.61 %); assay type: functional
BGC-823 [21] = experiment: Induction of apoptosis in human BGC-823 cells assessed as necrotic cells at 6 uM incubated for 48 hrs by Annexin V-FITC/PI staining based flow cytometric analysis ( Rvb = 1.79 %); assay type: functional
BGC-823 [22] = experiment: Cell cycle arrest in human BGC-823 cells assessed as accumulation of cells at G2/M phase incubated for 24 hrs by PI staining based flow cytometric analysis; assay type: functional
BGC-823 [23] = experiment: Antitumor activity against human BGC-823 cells xenografted in BALB/c nude mouse assessed as tumor growth inhibition at 5 mg/kg, ip administered for 21 days relative to control; assay type: functional; conditions: BGC-823, 504 h, time 21 day, read-out: TGI
[24] = Toxicity in BALB/c nude mouse xenografted with human BGC-823 cells assessed as change in body weight at 5 mg/kg, ip administered for 21 days; assay type: organism-based; conditions: in vivo, 504 h, time 21 day
BGC-823 [25] = experiment: Antitumor activity against human BGC-823 cells xenografted in BALB/c nude mouse assessed as increase in ROS level in tumor at 5 mg/kg, ip administered for 21 days by DHE staining based analysis; assay type: functional, organism-based; conditions: time 21.0 day
BGC-823 [26] = experiment: Antitumor activity against human BGC-823 cells xenografted in BALB/c nude mouse assessed as nuclear fragmentation in tumor at 5 mg/kg, ip administered for 21 days by H and E staining based analysis; assay type: functional, organism-based; conditions: time 21.0 day
BGC-823 [27] = experiment: Antitumor activity against human BGC-823 cells xenografted in BALB/c nude mouse assessed as nuclear condensation in tumor at 5 mg/kg, ip administered for 21 days by H and E staining based analysis; assay type: functional, organism-based; conditions: time 21.0 day
[28] = Acute toxicity in ip dosed ICR mouse assessed as mortality rate by measuring ratio at 1.93 logarithm of dose relative to total number of mouse; assay type: organism-based; conditions: in vivo
[29] = Acute toxicity in ip dosed ICR mouse assessed as animal death at 1.82 logarithm of dose; assay type: organism-based; conditions: in vivo
[30] = Acute toxicity in ip dosed ICR mouse assessed as lethal dose; assay type: organism-based; conditions: in vivo
[31] = Acute toxicity in ip dosed ICR mouse assessed as effect on heart by H and E staining based analysis; assay type: organism-based; conditions: in vivo
[32] = Acute toxicity in ip dosed ICR mouse assessed as effect on liver by H and E staining based analysis; assay type: organism-based; conditions: in vivo
[33] = Acute toxicity in ip dosed ICR mouse assessed as effect on spleen by H and E staining based analysis; assay type: organism-based; conditions: in vivo
[34] = Acute toxicity in ip dosed ICR mouse assessed as effect on lung by H and E staining based analysis; assay type: organism-based; conditions: in vivo
[35] = Acute toxicity in ip dosed ICR mouse assessed as effect on kidney by H and E staining based analysis; assay type: organism-based; conditions: in vivo
BGC-823 [36] = experiment: Antiproliferative activity against human BGC-823 cells assessed as reduction in cell viability at 0.52 to 7.68 uM preincubated with H2O2 for 2 hrs followed by compound addition and measured after 48 hrs by MTT assay; assay type: functional, cell-based; conditions: dose 0.52-7.68 µM
BGC-823 [37] = experiment: Antiproliferative activity against human BGC-823 cells assessed as reduction in cell viability at 0.52 to 7.68 uM preincubated with NAC for 2 hrs followed by compound addition and measured after 48 hrs by MTT assay; assay type: functional, cell-based; conditions: dose 0.52-7.68 µM
[38] = Drug release in human BGC-823 cells assessed as increase in 4-((4-hydroxybenzoyl)oxy)butyl (4aS,6aR,6bS,8aR,12aS,14aR,14bS)-11-cyano-2,2,6a,6b,9,9,12a-heptamethyl-10,14-dioxo-1,3,4,5,6,6a,6b,7,8,8a,9,10,12a,14,14a,14b-hexadecahydropicene-4a(2H)-carboxylate concentration incubated for 4 hrs in absence of H2O2 by LC-MS analysis; assay type: ADME, cell-based; conditions: bgc-823, 4 h
[39] = Binding affinity to DTT in PBS assessed as UV peak appearance at 288 nm at 360 uM by UV-Vis spectra analysis
[40] = GSH reactivity in human BGC-823 cells assessed as GSSG/GSH ratio at 2 uM incubated for 24 hrs by microplate reader analysis (reference value: 0.34); assay type: ADME, cell-based; conditions: bgc-823, 24 h

CC1(C)CC[C@]2(C(=O)OCCCCOC(=O)c3ccc(OCc4ccc(B5OC(C)(C)C(C)(C)O5)cc4)cc3)CC[C@]3(C)[C@H](C(=O)C=C4[C@@]5(C)C=C(C#N)C(=O)C(C)(C)[C@@H]5CC[C@]43C)[C@@H]2C1
IC50 (MCF7): 2.9 µM
IC50 (BGC-823 [1]): 2.3 µM
IC50 (HepG2): 6.5 µM
IC50 at 48 h [2]: 5 µM
IC50 at 48 h [3]: 4.5 µM
IC50 at 48 h [4]: 6.5 µM
IC50 (MGC-803): 3.6 µM
IC50 (SGC-7901): 3.2 µM
IC50 (NCI-N87): 2.5 µM
IC50 (BGC-823 [5]): 1.2 µM
selectivity ratio [6]: 4
Activity (BGC-823 [7]): 35.7%
Activity (Cell membrane [8]): 37.1%
Activity (Cell membrane [9]): 62.7%
viability at 1.5 µM (BGC-823 [10]): 87.1%
Activity (BGC-823 [11]): 2.08%
Activity (BGC-823 [12]): 7.62%
Activity (BGC-823 [13]): 3.23%
viability at 3 µM (BGC-823 [14]): 82.8%
Activity (BGC-823 [15]): 2.13%
Activity (BGC-823 [16]): 9.84%
Activity (BGC-823 [17]): 5.24%
viability at 6 µM (BGC-823 [18]): 75.8%
Activity (BGC-823 [19]): 3.71%
Activity (BGC-823 [20]): 14.9%
Activity (BGC-823 [21]): 5.58%
Activity (BGC-823 [22]): Dose-Dependent Effect
inhibition in vivo at 5 mg/kg (BGC-823 [23]): 86.2%
Activity [24]: Non-Toxic
Activity (BGC-823 [25]): Active
Activity (BGC-823 [26]): Active
Activity (BGC-823 [27]): Active
Ratio [28]: 0.17
Activity [29]: Toxic
LD50 [30]: 91.2 mg/kg
Activity [31]: Non-Toxic
Activity [32]: Non-Toxic
Activity [33]: Non-Toxic
Activity [34]: Non-Toxic
Activity [35]: Non-Toxic
Activity (BGC-823 [36]): Active
Activity (BGC-823 [37]): inactive
Drug metabolism [38]: Metabolite_Notdetected
Activity [39]: inactive
Ratio [40]: 0.48
